Reference: patent US11738082B2, “High concentration protein formulations with reduced viscosity” (Bhami's Research Laboratory, Pvt. Ltd., priority 2017, dated 2023)
Structures can show the parent of a compound that is named as a salt.

System: Human Gamma Globulin (HGG), GLOBUCEL®
Assay: Viscosity of aqueous solutions of Human Gamma Globulin (Cambridge VISCOlab5000 or DV2T cone and plate viscometer)
[1] = HGG 220 mg/mL, excipient 10 mg/mL, histidine buffer pH 6.0, 25° C.
[2] = HGG 220 mg/mL, excipient 10 mg/mL, phosphate buffer pH 6.0, 25° C.
[3] = HGG 220 mg/mL, excipient 10 mg/mL, citrate buffer pH 6.0, 25° C.
[4] = HGG […], excipient 5%, 25 mM citrate buffer pH 6.0

Description: Commercially obtained human gamma globulin (HGG), GLOBUCEL® (50 mg/mL) containing pharmaceutical excipients (Maltose) was dialyzed against water for 24 hr at 4° C. with three changes. To the aqueous solution of HGG, either histidine or phosphate or citrate buffer was added from the stock concentration of 1000 mM for histidine buffer or 1000 mM for citrate buffer or 1000 mM for phosphate buffer, pH 6.0 to get a final concentration of 25 mM each. The HGG solutions in various buffers were concentrated to a final volume of less than 150 μL using Vivaspin centrifugal concentrators (Sartorius). The collected protein sample was stored at 4° C. […] The protein concentrations were experimentally determined using the extinction coefficient of 1.4
[formula] at 280 nm. The viscosities of the solution were measured either using a Cambridge Viscometer, VISCOlab5000 using 70 μL of sample at 25° C. or using a DV2T cone and plate viscometer using 1.5 mL of sample at 25° C. at extrapolated zero shear rate.
Commercially obtained human gamma globulin (HGG), GLOBUCEL® (50 mg/mL) containing pharmaceutical excipients (Maltose) was dialyzed against water for 24 hr at 4° C. with three changes. To the aqueous solution of HGG, either citrate-phosphate buffer pH 5.0 or citrate-phosphate buffer pH 6.0 or citrate-phosphate buffer pH 7.0 was added from the stock concentration of 1000 mM for citrate buffer at pH 5.0 or pH 6.0 or pH 7.0 to get a final concentration of 25 mM each. The HGG solutions in various pH buffers were concentrated to a final volume of less than 150 μL using Vivaspin centrifugal concentrators (Sartorius). The collected protein sample was stored at 4° C. […] The protein concentrations were experimentally determined using the extinction coefficient of 1.4
Commercially obtained human gamma globulin (HGG), GLOBUCEL® (50 mg/mL) containing pharmaceutical excipients (Maltose) was dialyzed against water for 24 hr at 4° C. with three changes. To the aqueous solution of HGG, phosphate/citrate/histidine Buffer was added from the stock concentration of 1000 mM phosphate/citrate/histidine buffer, pH 6.0 to get a final concentration of 25 mM. To the buffered HGG different amino acid or its derivative was added individually and mixed until complete dissolution. The excipient containing HGG was concentrated to a final volume of less than 150 μL using Vivaspin centrifugal concentrators (Sartorius). The collected protein sample was stored at 4° C. […] The protein concentrations were experimentally determined using the extinction coefficient of 1.4
Commercially obtained human gamma globulin (HGG), GLOBUCEL® (50 mg/mL) containing pharmaceutical excipients (Maltose) was dialyzed against water for 24 hr at 4° C. with three changes. To the aqueous solution of HGG, phosphate/citrate/histidine Buffer was added from the stock concentration of 1000 mM phosphate/citrate/histidine buffer, pH 6.0 to get a final concentration of 25 mM. To the buffered HGG, different nucleosides or nucleotides or its derivative was added individually and mixed until complete dissolution. The excipient containing HGG was concentrated to a final volume of less than 150 μL using Vivaspin centrifugal concentrators (Sartorius). The collected protein sample was stored at 4° C.

O=C([O-])c1cccnc1.[Na+] [Nicotinic acid Sodium Salt]
Viscosity (cP) @ 25° C. (HGG 202 mg/mL, excipient 10 mg/mL (69 mM), 25 mM phosphate buffer pH 6.0): 29 cP
Viscosity (cP) @ 25° C. (HGG 203 mg/mL, excipient 10 mg/mL (69 mM), 25 mM histidine buffer pH 6.0): 21 cP
Viscosity, cP [1]: 81 cP
Viscosity, cP [2]: 95 cP
Viscosity, cP (HGG 225 mg/mL (footnote), excipient 10 mg/mL, citrate buffer pH 6.0, 25° C.): 71^$ cP
Viscosity (cP) @ 25° C. (HGG 225 mg/mL, excipient 10 mg/mL (69 mM), 25 mM phosphate buffer pH 6.0): 95 cP
Viscosity (cP) @ 25° C. (HGG 235 mg/mL, excipient 10 mg/mL (69 mM), 25 mM histidine buffer pH 6.0): 140 cP
Viscosity (cP) @ 25° C. (HGG 236 mg/mL, excipient […] (81 mM), 25 mM histidine buffer pH 6.0): 83 cP
Viscosity (cP) @ 25° C. (HGG […], excipient 10 mg/mL (69 mM), 25 mM citrate buffer pH 6.0): 71 cP

O=C(O)c1cccnc1 [Nicotinic acid (acid form)]
Viscosity, cP [3]: 20 cP
Viscosity, cP [1]: 18 cP
Viscosity, cP [2]: 20 cP
Viscosity (cP) @ 25° C. (HGG 231 mg/mL, excipient 10 mg/mL (81 mM), 25 mM histidine buffer pH 6.0): 23 cP
Viscosity (cP) @ 25° C. (HGG 246 mg/mL, excipient 10 mg/mL (81 mM), 25 mM citrate buffer pH 6.0): 48 cP
Viscosity (cP) @ 25° C. (HGG 250 mg/mL, excipient 10 mg/mL (81 mM), 25 mM phosphate buffer pH 6.0): 30 cP
Viscosity, cP (HGG 260 mg/mL, nicotinic acid (acid form) 1 mg/mL, 25 mM histidine buffer pH 6.0, 25° C.): 85 cP
Viscosity, cP (HGG 260 mg/mL, nicotinic acid (acid form) 5 mg/mL, 25 mM histidine buffer pH 6.0, 25° C.): 68 cP
Viscosity, cP (HGG 260 mg/mL, nicotinic acid (acid form) 10 mg/mL, 25 mM histidine buffer pH 6.0, 25° C.): 52 cP
Viscosity, cP (HGG 260 mg/mL, nicotinic acid (acid form) 15 mg/mL, 25 mM histidine buffer pH 6.0, 25° C.): 41 cP
Viscosity, cP (HGG 274 mg/mL, in the presence of nicotinic acid (acid form), 25 mM histidine buffer pH 6.0, 20° C.): 63 cP
Viscosity, cP (HGG 274 mg/mL, in the presence of nicotinic acid (acid form), 25 mM histidine buffer pH 6.0, 25° C.): 41 cP
Viscosity, cP (HGG 274 mg/mL, in the presence of nicotinic acid (acid form), 25 mM histidine buffer pH 6.0, 30° C.): 35 cP
Viscosity (cP) @ 25° C. (HGG 277 mg/mL, excipient 10 mg/mL (81 mM), 25 mM citrate buffer pH 6.0): 123 cP
Viscosity (cP) @ 25° C. (HGG 342 mg/mL, excipient 10 mg/mL (81 mM), 25 mM histidine buffer pH 6.0): 178 cP

O=C(O)[C@@H]1CCCN1 [Proline]
Viscosity (cP) @ 25° C. (HGG […], excipient 10 mg/mL (87 mM), 25 mM citrate buffer pH 6.0): 55 cP
Viscosity (cP) @ 25° C. (HGG […], excipient 10 mg/mL (87 mM), 25 mM phosphate buffer pH 6.0): 68 cP

Polysorbate 80
Viscosity (cP) @ 25° C. (HGG 228 mg/mL, excipient 0.07%, 25 mM citrate buffer pH 6.0): 78 cP
Viscosity (cP) @ 25° C. (HGG 241 mg/mL, excipient 0.07%, 25 mM phosphate buffer pH 6.0): 84 cP

CC(=O)[O-].[K+] [Potassium acetate]
Viscosity (cP) @ 25° C. (HGG 228 mg/mL, excipient 40 mg/mL (408 mM), 25 mM phosphate buffer pH 6.0): 172 cP

Cl.NCCc1ccc(O)cc1 [Tyramine-HCl]
Viscosity (cP) @ 25° C. (HGG 215 mg/mL, excipient 10 mg/mL (58 mM), 25 mM phosphate buffer pH 6.0): 145 cP

NCCCC[C@H](N)C(=O)O [Lysine]
Viscosity (cP) @ 25° C. (HGG 267 mg/mL, excipient 10 mg/mL (55 mM), 25 mM phosphate buffer pH 6.0): 199 cP

N=C(N)NCCCC[C@H](N)C(=O)O [Homoarginine]
Viscosity (cP) @ 25° C. (HGG 188 mg/mL, excipient 10 mg/mL (45 mM), 25 mM phosphate buffer pH 6.0): 28 cP

Cc1cn([C@H]2C[C@H](O)[C@@H](CO)O2)c(=O)[nH]c1=O [Thymidine]
Viscosity (cP) @ 25° C. (HGG 161 mg/mL, excipient 10 mg/mL (41 mM), 25 mM phosphate buffer pH 6.0): 60 cP

CCO [Ethanol]
Viscosity (cP) @ 25° C. (HGG 182 mg/mL, excipient 5%, 25 mM phosphate buffer pH 6.0): 53 cP
Viscosity (cP) @ 25° C. [4]: 5 cP

Cc1ncc(C[n+]2csc(CCO)c2C)c(N)n1 [Thiamine-HCl]
Viscosity (cP) @ 25° C. (HGG 179 mg/mL, excipient 10 mg/mL (30 mM), 25 mM phosphate buffer pH 6.0): 24 cP
Viscosity (cP) @ 25° C. (HGG 200 mg/mL, excipient 10 mg/mL (30 mM), 25 mM histidine buffer pH 6.0): 29 cP
Viscosity (cP) @ 25° C. (HGG 200 mg/mL, excipient 27.3 mg/mL (81 mM), 25 mM phosphate buffer pH 6.0): 34 cP
Viscosity, cP [1]: 95 cP
Viscosity, cP [2]: 65 cP
Viscosity (cP) @ 25° C. (HGG 246 mg/mL, excipient 27.3 mg/mL (81 mM), 25 mM phosphate buffer pH 6.0): 91 cP
Viscosity (cP) @ 25° C. (HGG 248 mg/mL, excipient 10 mg/mL (30 mM), 25 mM phosphate buffer pH 6.0): 92 cP
Viscosity (cP) @ 25° C. (HGG 294 mg/mL, excipient 10 mg/mL (30 mM), 25 mM citrate buffer pH 6.0): 185 cP

COC(=O)c1cccnc1 [Methylnicotinate]
Viscosity (cP) @ 25° C. (HGG 216 mg/mL, excipient 10 mg/mL (73 mM), 25 mM phosphate buffer pH 6.0): 84 cP

O=c1cc[nH]c(=O)[nH]1 [Uracil]
Viscosity (cP) @ 25° C. (HGG 235 mg/mL, excipient 1 mg/mL (9 mM), 25 mM phosphate buffer pH 6.0): 140 cP

O=C[C@@H](O)[C@H](O)[C@H](O)CO [Arabinose]
Viscosity (cP) @ 25° C. (HGG 186 mg/mL, excipient 10 mg/mL (67 mM), 25 mM citrate buffer pH 6.0): 65 cP

Cl.N [Ammonium chloride]
Viscosity (cP) @ 25° C. (HGG 182 mg/mL, excipient 5.35 mg/mL (100 mM), 25 mM phosphate buffer pH 6.0): 53 cP
Viscosity (cP) @ 25° C. (HGG 205 mg/mL, excipient 40 mg/mL (747 mM), 25 mM phosphate buffer pH 6.0): 21 cP

OC[C@H]1O[C@H](O[C@H]2O[C@H](CO)[C@@H](O)[C@H](O)[C@H]2O)[C@H](O)[C@@H](O)[C@@H]1O [Trehalose dihydrate]
Viscosity (cP) @ 25° C. (HGG 217 mg/mL, excipient 20 mg/mL (53 mM), 25 mM citrate buffer pH 6.0): 87 cP
Viscosity (cP) @ 25° C. (HGG 246 mg/mL, excipient 20 mg/mL (53 mM), 25 mM phosphate buffer pH 6.0): 54 cP

CC(=O)Oc1ccccc1C(=O)O [Acetyl salicylic acid, reference compound]
Viscosity (cP) @ 25° C. (HGG 283 mg/mL, excipient 2.5 mg/mL (14 mM), 25 mM histidine buffer pH 6.0): 43 cP

N[C@@H](CO)C(=O)O [Serine]
Viscosity (cP) @ 25° C. (HGG 238 mg/mL, excipient 10 mg/mL (95 mM), 25 mM phosphate buffer pH 6.0): 135 cP

O=C(CO)[C@@H](O)[C@H](O)[C@H](O)CO [Fructose]
Viscosity (cP) @ 25° C. (HGG […], excipient 10 mg/mL (56 mM), 25 mM citrate buffer pH 6.0): 69 cP

NC(=O)c1cccnc1 [Nicotinamide]
Viscosity (cP) @ 25° C. (HGG 105 mg/mL, excipient 10 mg/mL (82 mM), 25 mM histidine buffer pH 6.0): 26 cP
Viscosity (cP) @ 25° C. (HGG 191 mg/mL, excipient 10 mg/mL (82 mM), 25 mM phosphate buffer pH 6.0): 21 cP
Viscosity (cP) @ 25° C. (HGG 219 mg/mL, excipient 10 mg/mL (82 mM), 25 mM citrate buffer pH 6.0): 72 cP
Viscosity, cP [3]: 72 cP
Viscosity, cP [1]: 43 cP
Viscosity, cP [2]: 49 cP
Viscosity (cP) @ 25° C. (HGG 224 mg/mL, excipient 10 mg/mL (82 mM), 25 mM histidine buffer pH 6.0): 43 cP
Viscosity (cP) @ 25° C. (HGG 250 mg/mL, excipient 10 mg/mL (82 mM), 25 mM phosphate buffer pH 6.0): 76 cP

CC(=O)[O-].[Na+] [Sodium Acetate]
Viscosity (cP) @ 25° C. (HGG 174 mg/mL, excipient […] (100 mM), 25 mM phosphate buffer pH 6.0): 19 cP

C[C@H](N)C(=O)O [Alanine]
Viscosity (cP) @ 25° C. (HGG 222 mg/mL, excipient 10 mg/mL (112 mM), 25 mM phosphate buffer pH 6.0): 112 cP

OC[C@H]1O[C@@](CO)(O[C@H]2O[C@H](CO)[C@@H](O)[C@H](O)[C@H]2O)[C@@H](O)[C@@H]1O [Sucrose]
Viscosity (cP) @ 25° C. (HGG 192 mg/mL, excipient 20 mg/mL (58 mM), 25 mM citrate buffer pH 6.0): 76 cP
Viscosity (cP) @ 25° C. (HGG 204 mg/mL, excipient 20 mg/mL (58 mM), 25 mM phosphate buffer pH 6.0): 190 cP

OC[C@@H](O)[C@@H](O)[C@H](O)[C@H](O)CO [Mannitol]
Viscosity (cP) @ 25° C. (HGG […], excipient 10 mg/mL (55 mM), 25 mM citrate buffer pH 6.0): 65 cP

O=C1O[C@H]([C@@H](O)CO)C(O)=C1O [L-Ascorbic acid]
Viscosity (cP) @ 25° C. (HGG 214 mg/mL, excipient 10 mg/mL (57 mM), 25 mM phosphate buffer pH 6.0): 59 cP

N[C@@H](Cc1c[nH]c2ccccc12)C(=O)O [Tryptophan]
Viscosity (cP) @ 25° C. (HGG 200 mg/mL, excipient 6 mg/mL (29 mM), 25 mM phosphate buffer pH 6.0): 14 cP
Viscosity (cP) @ 25° C. (HGG 231 mg/mL, excipient 6 mg/mL (29 mM), 25 mM citrate buffer pH 6.0): 60 cP
Viscosity (cP) @ 25° C. (HGG 243 mg/mL, excipient 6 mg/mL (29 mM), 25 mM phosphate buffer pH 6.0): 35 cP
Viscosity (cP) @ 25° C. (HGG 256 mg/mL, excipient 6 mg/mL (29 mM), 25 mM histidine buffer pH 6.0): 18 cP

C[S+](C)[O-] [DMSO]
Viscosity (cP) @ 25° C. (HGG 204 mg/mL, excipient 5%, 25 mM phosphate buffer pH 6.0): 121 cP
Viscosity (cP) @ 25° C. [4]: 28 cP
